Columns and labels:
[1] = system: phospho-Serine 318 ATG13 (pATG13), ULK kinase substrate, in A549 (KRAS mutant) cells; assay: pATG13 levels of mutant KRas A549 cells after treatment with ULK inhibitors in combination with trametinib (ELISA); type: cell-based, human; conditions: with 250 nM trametinib
Procedure, shortened: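 A549 cells grown overnight were treated overnight at 37 °C with a dose response of test compound plus 250 nM trametinib (final) or DMSO. Lysates were assayed by sandwich ELISA, with total ATG13 capture and biotinylated pS318-ATG13 detection read at 450 nm minus 540 nm, giving % phosphorylation against control and IC50.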

[2] = biological target: T1, ULK1 kinase (Homo sapiens, UniProt O75385); assay: Biochemical assay for ULK1.2 (coupled pyruvate kinase/lactate dehydrogenase assay); conditions: 19 nM ULK1 (Eurofins), myelin basic protein, 1 mM ATP
T1 construct: purchased Eurofins 14-959
T1 sequence (O75385 with tags, fused parts or gaps): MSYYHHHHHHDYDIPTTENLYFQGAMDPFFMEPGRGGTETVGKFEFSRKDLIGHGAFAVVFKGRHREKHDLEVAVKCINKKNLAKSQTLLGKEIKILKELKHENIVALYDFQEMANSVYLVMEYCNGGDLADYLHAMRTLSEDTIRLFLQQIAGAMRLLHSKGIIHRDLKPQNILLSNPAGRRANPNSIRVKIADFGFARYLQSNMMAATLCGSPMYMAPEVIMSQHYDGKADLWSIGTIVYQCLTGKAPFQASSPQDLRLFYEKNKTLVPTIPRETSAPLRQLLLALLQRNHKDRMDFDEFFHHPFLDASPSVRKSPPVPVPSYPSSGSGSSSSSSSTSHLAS
Procedure, shortened: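 NADH-coupled PK/LDH read-out at 340 nm, run with 19 nM ULK1, 0.25 mg/mL myelin basic protein and 1 mM ATP. Buffer was 100 mM Tris pH 7.5 with 15 mM MgCl2 and 1% DMSO final. Monitoring was continuous for 6 hours at 30° C; rates from the 2-3 h window were converted to percent inhibition and fitted to a four-parameter curve for IC50.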

[3] = system: phospho-Serine 318 ATG13 (pATG13) in MiaPaCa-2 cells; assay: pATG13 levels of mutant KRas MiaPaCa-2 cells after treatment with ULK inhibitors in combination with trametinib (ELISA); type: cell-based, human
Description: Example 178. pATG13 Levels of Mutant KRas MiaPaCa-2 Cells after Treatment with ULK Inhibitors in Combination with Trametinib
MiaPaCa-2 human pancreatic cancer cells (10000 cells/well) were added to a 384-well tissue-culture treated plate in 50 μL of pre-warmed DMEM medium supplemented with 10% characterized fetal bovine serum (Invitrogen, Carlsbad, Calif.), 100 units/mL penicillin G, 100 μg/mL streptomycin, and 2.5% Horse Serum and allowed to grow overnight at 37° C., 5% CO2, and 95% humidity. The following day, 10 μL of media containing trametinib or DMSO as a control was added to wells. The final concentration of trametinib in wells was 250 nM. A dose response of a test compound (0.6 μL per well) was added. DMSO (0.6 μL) was added to control wells. The plate was briefly shaken to mix wells and then incubated at 37° C. overnight. The next day, the media was aspirated and cells were washed with Dulbecco's Phosphate Buffered Saline (Gibco). Cells were lysed using MPER lysis buffer (Pierce, Rockford, Ill.) containing Halt Phosphatase and Protease Inhibitors (Pierce, Rockford, Ill.) and Phosphatase inhibitor cocktail 2 (Sigma, St. Louis, Mo.) at 4° C. for 10 minutes with shaking.
Cellular levels of phospho-Serine 318 ATG13 (pATG13) were measured via an ELISA method. Total ATG13 Antibody (Cell Signaling Cat #13273) was used to coat the wells. The plate was incubated at 4° C. overnight and washed with ELISA wash buffer (Biolegend Cat #421601). The wells were then blocked with assay diluent (Biolegend Cat #421203) for 1 hour at room temperature. Plate wells were washed with ELISA wash buffer. Cell lysate was added to wells and incubated at room temperature for 2 hours. Plate wells were washed with ELISA wash buffer. Biotinylated pS318-ATG13 antibody (Rockland Immunochemicals Cat #600-401-C49) was diluted in assay diluent and added to each well and incubated at room temperature for 1 hour. Plate wells were washed with ELISA wash buffer. Streptavidin linked to horseradish peroxidase (Thermo Fisher Cat #21140) was diluted in assay diluent and added to each well and incubated at room temperature for 1 hour. Plate wells were washed with ELISA wash buffer. High sensitivity TMB substrate (Biolegend Cat #421101) was added to each well and incubated at room temperature for 20 minutes. The reaction was stopped with 2N Sulfuric Acid. The plate was analyzed at on a plate reader measuring absorbance at 450 nm and 540 nm (background). Signal was calculated by first subtracting the background absorbance at 540 nm from the absorbance at 450 nm for each well. Next, the background corrected absorbance at 450 nm from blank wells was subtracted from test wells. Data was compared to control wells to determine % ATG13 phosphorylation. GraphPad Prism was used to calculate IC50 values.

Structure (SMILES) | IC50 [1] | IC50 [2] | IC50 [3]
CC(C)N1CCC(n2cc(Nc3ncc(C(F)(F)F)c(NCCCN4CCCCC4=O)n3)cn2)CC1 [Example 6] | 10 to 100 nM | 1 to 25 nM | 10 to 100 nM
Cc1nn(C2CCN(C)CC2)cc1Nc1ncc(C(F)(F)F)c(NCCCN2CCCCC2=O)n1 [Example 8] | 10 to 100 nM | 1 to 25 nM | –
Cc1nn(C2CCN(C(C)C)CC2)cc1Nc1ncc(C(F)(F)F)c(NCCCN2CCCCC2=O)n1 [Example 15] | 10 to 100 nM | 25 to 100 nM | 10 to 100 nM
Cc1nn([C@@H]2CCN(C)C2)cc1Nc1ncc(C(F)(F)F)c(NCCCN2CCCCC2=O)n1 [Example 18] | 100 to 300 nM | 1 to 25 nM | –
Cc1nn(CCN(C)C)cc1Nc1ncc(C(F)(F)F)c(NCCCN2CCCCC2=O)n1 [Example 21] | 300 to 600 nM | 25 to 100 nM | 100 to 300 nM
CN(C)CCn1cc(Nc2ncc(C(F)(F)F)c(NCCCN3CCCCC3=O)n2)cn1 [Example 32] | 100 to 300 nM | 25 to 100 nM | 10 to 100 nM
CCc1nn(C2CCN(C)CC2)cc1Nc1ncc(Br)c(NCCCN2CCCCC2=O)n1 [Example 53] | 100 to 300 nM | 25 to 100 nM | 100 to 300 nM
Cc1nn([C@H]2CCN(C)C2)cc1Nc1ncc(Br)c(NCCCN2CCCCC2=O)n1 [Example 61] | 100 to 300 nM | 25 to 100 nM | 10 to 100 nM
CCN1CC[C@H](n2cc(Nc3ncc(Br)c(NCCCN4CCCCC4=O)n3)c(C)n2)C1 [Example 64] | 100 to 300 nM | 25 to 100 nM | 10 to 100 nM
Cc1nn(C2CCN(C(C)C)CC2)cc1Nc1ncc(C(F)(F)F)c(NCCCN2CCCOC2=O)n1 [Example 68] | 300 to 600 nM | 25 to 100 nM | 10 to 100 nM
Cc1nn(C2CCN(C)CC2)cc1Nc1ncc(C(F)(F)F)c(NCCCN2CCCCCC2=O)n1 [Example 79] | 10 to 100 nM | 1 to 25 nM | 10 to 100 nM
Cc1nn(CCCN2CCOCC2)cc1Nc1ncc(C(F)(F)F)c(NCCCN2CCCCCC2=O)n1 [Example 100] | 100 to 300 nM | 25 to 100 nM | 100 to 300 nM
Cc1nn(C2CCN(C)CC2)cc1Nc1ncc(C(F)(F)F)c(NCCCN2CCCOCC2=O)n1 [Example 102] | 100 to 300 nM | 1 to 25 nM | 10 to 100 nM
Cc1nn(C2CCN(C)CC2)cc1Nc1ncc(Cl)c(NCCCN2CCCOCC2=O)n1 [Example 105] | > 600 nM | 25 to 100 nM | 100 to 300 nM
Cc1nn([C@@H]2CCN(C)C2)cc1Nc1ncc(C(F)(F)F)c(NCCCN2CCCOCC2=O)n1 [Example 106] | 100 to 300 nM | 25 to 100 nM | 10 to 100 nM
CCN1CCC(n2cc(Nc3ncc(C(F)(F)F)c(NCCCN4CCCOCC4=O)n3)c(C)n2)CC1 [Example 107] | 100 to 300 nM | 25 to 100 nM | 100 to 300 nM
Cc1nn(C2CCN(C(C)C)CC2)cc1Nc1ncc(C(F)(F)F)c(NCCCN2CCCOCC2=O)n1 [Example 108] | 300 to 600 nM | 25 to 100 nM | 100 to 300 nM
Cc1nn(C2CCN(C)CC2)cc1Nc1ncc(C(F)(F)F)c(NCCCN2CCOCCC2=O)n1 [Example 127] | 100 to 300 nM | 1 to 25 nM | 10 to 100 nM
CCN1CCC(n2cc(Nc3ncc(C(F)(F)F)c(NCCCN4CCOCCC4=O)n3)c(C)n2)CC1 [Example 130] | 100 to 300 nM | 25 to 100 nM | 10 to 100 nM
Cc1nn(C2CCN(C(C)C)CC2)cc1Nc1ncc(C(F)(F)F)c(NCCCN2CCOCCC2=O)n1 [Example 131] | 300 to 600 nM | 25 to 100 nM | 100 to 300 nM

— US11518758B2, “Heteroarylaminopyrimidine amide autophagy inhibitors and methods of use thereof” (Deciphera Pharmaceuticals, LLC, priority 2019, dated 2022)
